Six molecules from US20250136578A1 (Kolm Therapeutics Inc., priority 2023, published 2025) can be followed below.

One experiment addresses AR / CBP ternary complex (Homo sapiens, UniProt P10275+Q92793). As to the kind of experiment: Ternary complex formation assay (sandwich ELISA, AR capture, CBP antibody detection) in VCaP cell lysates. It is filed as cell-based. The conditions noted are these: treated 1.5 hours, rabbit CBP or p300 antibody detection, average, read-out: Average Ternary Complex. The method, boiled down:
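VCaP cells in 5% charcoal-stripped FBS were cultured ≥3 days and then given bifunctional compound for 1.5 h. Lysates went onto AR-antibody-coated plates. Bound CBP (or p300) was detected with a rabbit antibody plus HRP anti-rabbit, using QuantaRed chemifluorescence (ex 570/em 585) read immediately, at 5 min and at 15 min.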
On the technique in general: An ELISA detects its analyte on a solid surface through an enzyme-linked reagent.

In another experiment the test system is VCaP cells. The experiment can be described thus: VCaP growth inhibition assay (CTG). It is filed as cell-based. The conditions noted are these: Homo sapiens, 216 h, 30 pM R1881, 9 days. In outline:
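VCaP cells in phenol red-free DMEM with 5% charcoal-stripped serum were stimulated with 30 pM R1881 (final) and treated with compound from 100 nM to 10 fM final (1:5 dilutions) for 9 days at 37 °C. Viability was read by CellTiter-Glo luminescence, and IC50 came from 4-parameter logistic fits.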

Sequence of AR / CBP ternary complex (P10275 whole entry): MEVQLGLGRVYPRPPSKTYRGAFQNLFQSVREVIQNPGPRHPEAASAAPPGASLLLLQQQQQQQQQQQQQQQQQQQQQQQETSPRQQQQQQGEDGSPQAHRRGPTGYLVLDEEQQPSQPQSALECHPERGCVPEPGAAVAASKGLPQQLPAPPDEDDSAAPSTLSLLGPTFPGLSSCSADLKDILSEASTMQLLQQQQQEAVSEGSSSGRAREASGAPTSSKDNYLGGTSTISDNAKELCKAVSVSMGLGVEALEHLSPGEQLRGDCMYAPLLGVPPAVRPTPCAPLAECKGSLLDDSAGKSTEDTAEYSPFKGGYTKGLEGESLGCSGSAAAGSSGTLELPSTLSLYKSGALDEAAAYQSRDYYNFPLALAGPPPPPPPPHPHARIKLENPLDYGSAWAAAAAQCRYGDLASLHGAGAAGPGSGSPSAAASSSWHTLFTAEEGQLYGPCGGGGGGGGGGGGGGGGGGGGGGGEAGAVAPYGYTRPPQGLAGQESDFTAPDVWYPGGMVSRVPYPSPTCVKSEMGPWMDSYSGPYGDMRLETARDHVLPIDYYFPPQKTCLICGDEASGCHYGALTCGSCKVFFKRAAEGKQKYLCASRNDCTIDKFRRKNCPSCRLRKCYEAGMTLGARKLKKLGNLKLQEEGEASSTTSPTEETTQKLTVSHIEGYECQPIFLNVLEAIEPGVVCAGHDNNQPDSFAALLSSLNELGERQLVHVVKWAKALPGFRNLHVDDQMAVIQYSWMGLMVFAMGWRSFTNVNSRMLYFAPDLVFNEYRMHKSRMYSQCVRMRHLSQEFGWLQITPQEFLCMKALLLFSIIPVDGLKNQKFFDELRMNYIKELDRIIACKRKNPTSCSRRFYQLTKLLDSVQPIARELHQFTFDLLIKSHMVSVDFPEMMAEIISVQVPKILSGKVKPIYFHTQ
Sequence of AR / CBP ternary complex (Q92793 2-2442): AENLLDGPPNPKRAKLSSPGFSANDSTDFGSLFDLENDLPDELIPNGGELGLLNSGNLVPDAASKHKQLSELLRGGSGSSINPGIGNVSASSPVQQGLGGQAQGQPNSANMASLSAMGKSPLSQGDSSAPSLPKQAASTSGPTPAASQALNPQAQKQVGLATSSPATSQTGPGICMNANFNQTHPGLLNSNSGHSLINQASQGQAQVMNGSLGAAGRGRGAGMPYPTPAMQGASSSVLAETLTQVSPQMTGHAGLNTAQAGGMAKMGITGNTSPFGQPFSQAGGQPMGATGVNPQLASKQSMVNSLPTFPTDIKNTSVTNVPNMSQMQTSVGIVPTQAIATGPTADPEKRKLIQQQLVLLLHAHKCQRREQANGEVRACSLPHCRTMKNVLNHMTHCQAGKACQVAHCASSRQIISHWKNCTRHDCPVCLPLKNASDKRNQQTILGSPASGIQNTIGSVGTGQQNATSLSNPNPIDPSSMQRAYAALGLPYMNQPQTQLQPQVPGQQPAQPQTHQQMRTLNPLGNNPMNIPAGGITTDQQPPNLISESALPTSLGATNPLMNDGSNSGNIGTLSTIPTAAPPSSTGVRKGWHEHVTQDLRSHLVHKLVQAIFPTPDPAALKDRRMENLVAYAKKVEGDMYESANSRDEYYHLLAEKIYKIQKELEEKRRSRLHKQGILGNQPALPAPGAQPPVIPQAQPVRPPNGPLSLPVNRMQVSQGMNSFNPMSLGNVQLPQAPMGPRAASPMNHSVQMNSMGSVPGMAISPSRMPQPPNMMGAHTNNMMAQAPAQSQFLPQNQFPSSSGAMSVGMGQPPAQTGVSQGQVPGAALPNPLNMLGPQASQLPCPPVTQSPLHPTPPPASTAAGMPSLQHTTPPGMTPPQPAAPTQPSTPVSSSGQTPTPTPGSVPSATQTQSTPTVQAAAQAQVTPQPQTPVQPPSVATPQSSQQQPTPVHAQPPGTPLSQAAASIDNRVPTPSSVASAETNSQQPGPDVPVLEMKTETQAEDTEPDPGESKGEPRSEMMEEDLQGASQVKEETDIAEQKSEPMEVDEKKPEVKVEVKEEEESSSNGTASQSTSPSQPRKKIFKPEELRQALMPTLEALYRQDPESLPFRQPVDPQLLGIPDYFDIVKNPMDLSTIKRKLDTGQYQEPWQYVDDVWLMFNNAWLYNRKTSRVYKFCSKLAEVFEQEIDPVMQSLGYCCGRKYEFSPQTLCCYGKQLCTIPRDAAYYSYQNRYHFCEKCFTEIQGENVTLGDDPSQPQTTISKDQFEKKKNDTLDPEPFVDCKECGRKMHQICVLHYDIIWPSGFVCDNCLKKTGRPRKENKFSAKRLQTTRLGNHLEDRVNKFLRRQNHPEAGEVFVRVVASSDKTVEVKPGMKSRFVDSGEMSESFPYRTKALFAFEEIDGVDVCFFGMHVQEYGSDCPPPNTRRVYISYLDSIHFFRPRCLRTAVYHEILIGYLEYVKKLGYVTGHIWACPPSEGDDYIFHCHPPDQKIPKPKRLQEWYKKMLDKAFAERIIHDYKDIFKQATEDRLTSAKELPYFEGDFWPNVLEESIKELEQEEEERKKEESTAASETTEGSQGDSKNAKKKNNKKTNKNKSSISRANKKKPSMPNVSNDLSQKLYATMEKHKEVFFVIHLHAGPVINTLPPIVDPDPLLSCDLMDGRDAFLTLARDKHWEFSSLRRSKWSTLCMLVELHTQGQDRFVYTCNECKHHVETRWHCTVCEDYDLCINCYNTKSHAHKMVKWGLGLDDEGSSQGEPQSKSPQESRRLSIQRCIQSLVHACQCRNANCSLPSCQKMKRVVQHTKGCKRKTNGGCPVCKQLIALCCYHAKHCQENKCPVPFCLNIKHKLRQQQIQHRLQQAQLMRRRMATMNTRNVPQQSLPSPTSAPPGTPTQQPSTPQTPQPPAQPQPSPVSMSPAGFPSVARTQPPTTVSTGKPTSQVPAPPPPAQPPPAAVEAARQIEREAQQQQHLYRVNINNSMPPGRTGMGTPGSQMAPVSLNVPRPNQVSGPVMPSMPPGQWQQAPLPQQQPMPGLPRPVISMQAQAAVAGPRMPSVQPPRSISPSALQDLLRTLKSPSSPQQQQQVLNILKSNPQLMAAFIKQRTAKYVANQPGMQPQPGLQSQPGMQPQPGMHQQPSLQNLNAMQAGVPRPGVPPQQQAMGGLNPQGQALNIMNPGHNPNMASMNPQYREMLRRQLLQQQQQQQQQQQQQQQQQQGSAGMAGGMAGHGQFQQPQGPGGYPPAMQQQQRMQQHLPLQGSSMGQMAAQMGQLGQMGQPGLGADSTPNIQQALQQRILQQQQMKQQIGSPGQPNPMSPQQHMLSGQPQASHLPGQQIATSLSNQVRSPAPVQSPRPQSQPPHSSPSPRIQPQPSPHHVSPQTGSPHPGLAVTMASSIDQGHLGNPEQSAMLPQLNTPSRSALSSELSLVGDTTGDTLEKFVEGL

A word on the IC50: it is the concentration that gives 50% inhibition. Lower therefore signals greater potency in that assay. For `CC(=O)N1CCc2c(c(N3CCCc4cc(-c5cnn(C)c5)c(C(F)F)cc43)nn2CC2CC3(CCN(c4ccc(C(=O)N[C@H]5CC[C@H](Oc6ccc(C#N)c(Cl)c6)CC5)nn4)CC3)C2)C1` [Compound 130, 6-[2-[[5-acetyl-3-[7-(difluoromethyl)-6-(1-methylpyrazol-4-yl)-3,4-dihydro-2H-quinolin-1-yl]-6,7-dihydro-4H-pyrazolo[4,3-c]pyridin-1-yl]methyl]-7-azaspiro[3.5]nonan-7-yl]-N-[4-(3-chloro-4-cyano-phenoxy)cyclohexyl]pyridazine-3-carboxamide], on AR / CBP ternary complex, the EC50 was > 100 nM. This molecule also had an IC50 in the experiment on VCaP cells of 0.1 to 1 nM.

As for `CC(=O)N1CCc2c(c(N3CCCc4cc(C#N)ccc43)nn2C2CC3(C2)CN(CC2CC4(C2)CN(c2ccc(C(=O)N[C@H]5CC[C@H](Oc6ccc(C#N)c(Cl)c6)CC5)nn2)C4)C3)C1` (stereo partly drawn) [Compound 45, 6-[6-[[6-[5-acetyl-3-(6-cyano-3,4-dihydro-2H-quinolin-1-yl)-6,7-dihydro-4H-pyrazolo[4,3-c]pyridin-1-yl]-2-azaspiro [3.3]heptan-2-yl]methyl]-2-azaspiro[3.3]heptan-2-yl]-N-[4-(3-chloro-4-cyano-phenoxy)cyclohexyl] pyridazine-3-carboxamide], the EC50 on AR / CBP ternary complex is < 1 nM. Also, the half-inhibitory concentration (IC50) in the experiment with VCaP cells was 0.1 to 1 nM.

On to `CC(=O)N1CCc2c(c(-c3cccc4cc(-c5cnn(CCOC6CCN(c7ccc(C(=O)N[C@H]8CC[C@H](Oc9ccc(C#N)c(Cl)c9)CC8)nn7)CC6)c5)ncc34)nn2C2CCOCC2)C1` [Compound 26, 6-[4-[2-[4-[8-(5-acetyl-1-tetrahydropyran-4-yl-6,7-dihydro-4H-pyrazolo[4,3-c]pyridin-3-yl)-3-isoquinolyl]pyrazol-1-yl]ethoxy]-1-piperidyl]-N-[4-(3-chloro-4-cyano-phenoxy)cyclohexyl]pyridazine-3-carboxamide], for which, on AR / CBP ternary complex, the EC50 is < 1 nM. Besides, the IC50 in the experiment on VCaP cells is ≤ 0.1 nM.

With `COc1cc2c(cn1)N(c1nn(C3CCN(CC4CCN(c5ccc(C(=O)N[C@H]6CC[C@H](Oc7ccc(C#N)c(Cl)c7)CC6)nn5)CC4)CC3)c3c1CN(C(C)=O)CC3)CCC2` [Compound 109, 6-[4-[[4-[5-acetyl-3-(6-methoxy-3,4-dihydro-2H-1,7-naphthyridin-1-yl)-6,7-dihydro-4H-pyrazolo[4,3-c]pyridin-1-yl]-1-piperidyl]methyl]-1-piperidyl]-N-[4-(3-chloro-4-cyano-phenoxy)cyclohexyl]pyridazine-3-carboxamide], the EC50 at AR / CBP ternary complex fell in the range of 10 to 100 nM. In addition, in the experiment with VCaP cells, the IC50 is 0.1 to 1 nM.

For the molecule `CC(=O)N1CCc2c(c(N3CCCc4cc(-c5cnn(C)c5)c(C(F)F)cc43)nn2C2CCN([C@H]3CCCN(c4ccc(C(=O)N[C@H]5CC[C@H](Oc6ccc(C#N)c(Cl)c6)CC5)nn4)C3)CC2)C1` [Compound 258, 6-[(3S)-3-[4-[5-acetyl-3-[7-(difluoromethyl)-6-(1-methylpyrazol-4-yl)-3,4-dihydro-2H-quinolin-1-yl]-6,7-dihydro-4H-pyrazolo[4,3-c]pyridin-1-yl]-1-piperidyl]-1-piperidyl]-N-[4-(3-chloro-4-cyano-phenoxy)cyclohexyl]pyridazine-3-carboxamide], the EC50 at AR / CBP ternary complex lay in the range of 1 to 10 nM. The same molecule returned an IC50 with VCaP cells of 1 to 100 nM.

Turning to `CC(=O)N1CCc2c(c(N3CCCc4cc(-c5ncco5)c(C(F)F)cc43)nn2C2CCN(CC3CCN(c4ccc(C(=O)N[C@H]5CC[C@H](Oc6ccc(C#N)c(Cl)c6)CC5)nn4)CC3)CC2)C1` [Compound 256, 6-[4-[[4-[5-acetyl-3-[7-(difluoromethyl)-6-oxazol-2-yl-3,4-dihydro-2H-quinolin-1-yl]-6,7-dihydro-4H-pyrazolo[4,3-c]pyridin-1-yl]-1-piperidyl]methyl]-1-piperidyl]-N-[4-(3-chloro-4-cyano-phenoxy)cyclohexyl] pyridazine-3-carboxamide], the EC50 at AR / CBP ternary complex is < 1 nM. The molecule also gave an IC50 with VCaP cells of 0.1 to 1 nM.
